Assays:
sedge, umbrella = test: Test B flooded paddy test; format: in vivo, Cyperus difformis; settings: Cyperus difformis, Flood, 250 g ai/ha; 0 to 100 scale where 0 is no effect and 100 is complete control; read-out: Plant response rating, Sedge, Umbrella
Summary of the method: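 Post-emergence paddy-water application at the 2-leaf stage, with 3 cm flood kept for the whole test. Response was judged visually relative to controls after 13 to 15 greenhouse days, 0 indicating no effect and 100 complete control.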

ragweed = test: Test C postemergence; format: in vivo, Ambrosia elatior; settings: Ambrosia artemisiifolia, post-emergence
Summary of the method: (§1)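 Rated visually on 0–100 (100 = complete control) after 13–15 days under glass. Treatments went onto freshly seeded loam/sand soil or onto emerged plants at the 1- to 4-leaf stage, using a surfactant-containing solvent formulation.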

wheat, winter = test: Test C postemergence; format: in vivo, Triticum aestivum; settings: Triticum aestivum, post-emergence
Summary of the method: as §1

velvetleaf [1] = test: Test C preemergence; format: in vivo, Abutilon theophrasti; settings: Abutilon theophrasti, pre-emergence
Summary of the method: as §1

barnyardgrass = test: Test A postemergence; format: in vivo, Echinochloa crus-galli; settings: Echinochloa crus-galli, post-emergence, 240 h
Summary of the method: (§2)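 Greenhouse pot test, loam/sand soil. Formulation: non-phytotoxic solvent mix plus surfactant. Pre: directed spray onto soil after sowing. Post: plants at 1–2 leaf, 2–10 cm. Rated visually vs untreated controls at ~10 d, 0 (no effect) to 100 (complete control).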

waterhemp = test: Test C preemergence; format: in vivo, Amaranthus rudis; settings: Amaranthus tuberculatus, pre-emergence
Summary of the method: as §1

giant foxtail [2] = test: Test A preemergence; format: in vivo, Setaria faberii; settings: Setaria faberi, pre-emergence, 240 h
Summary of the method: as §2

yellow nutsedge = test: Test C postemergence; format: in vivo, Cyperus esculentus; settings: Cyperus, post-emergence
Summary of the method: as §1

morningglory [3] = test: Test C preemergence; format: in vivo, Ipomoea coccinea; settings: Ipomoea, pre-emergence
Summary of the method: as §1

corn = test: Test C preemergence; format: in vivo, Zea mays; settings: Zea mays, pre-emergence, preemergence, scale 0 (no effect) to 100 (complete control), read-out: Corn plant response rating
Summary of the method: as §1

morningglory [4] = test: Test C postemergence; format: in vivo, Ipomoea coccinea; settings: Ipomoea, post-emergence
Summary of the method: as §1

velvetleaf [5] = test: Test A postemergence; format: in vivo, Abutilon theophrasti; settings: Abutilon theophrasti, post-emergence, 240 h
Summary of the method: as §2

wheat = test: Test A postemergence; format: in vivo, Triticum aestivum; settings: Triticum aestivum, post-emergence, 240 h
Summary of the method: as §2

giant foxtail [6] = test: Test C postemergence; format: in vivo, Setaria faberii; settings: Setaria faberi, post-emergence
Summary of the method: as §1

galium = test: Test C postemergence; format: in vivo, Galium aparine; settings: Galium, post-emergence
Summary of the method: as §1

N#Cc1cccc(Oc2ncc(Br)cn2)c1-n1cc(C(F)(F)F)cn1 [Compound 59, 3-[(5-bromo-2-pyrimidinyl)oxy]-2-[4-(trifluoromethyl)-1H-pyrazol-1-yl]benzonitrile]
pest or weed control at 250 g/ha (sedge, umbrella): 90% | pest or weed control at 125 g/ha (ragweed; 125 g ai/ha, postemergence, read-out: Plant response rating (0 to 100), Ragweed): 25% | pest or weed control at 250 g/ha (ragweed; 250 g ai/ha, postemergence, read-out: Plant response rating (0 to 100), Ragweed): 55% | pest or weed control at 31 g/ha (ragweed; Postemergence, 31 g ai/ha, scale 0 to 100 (0 no effect, 100 complete control), 13 to 15 days, read-out: Plant response rating, Ragweed): 10% | pest or weed control at 62 g/ha (ragweed; Postemergence, 62 g ai/ha, scale 0 to 100 (0 no effect, 100 complete control), read-out: Plant response rating, Ragweed): 25% | plant injury at 125 g/ha (wheat, winter; 125 g ai/ha, postemergence, read-out: Plant response rating (0 to 100), Wheat): 20% | plant injury at 250 g/ha (wheat, winter; 250 g ai/ha, postemergence, read-out: Plant response rating (0 to 100), Wheat): 20% | plant injury at 31 g/ha (wheat, winter; Postemergence, 31 g ai/ha, scale 0 to 100 (0 no effect, 100 complete control), 13 to 15 days, read-out: Plant response rating, Wheat): 5% | plant injury at 62 g/ha (wheat, winter; Postemergence, 62 g ai/ha, scale 0 to 100 (0 no effect, 100 complete control), read-out: Plant response rating, Wheat): 5% | pest or weed control at 62 g/ha (velvetleaf [1]; 62 g ai/ha, preemergence, scale 0 (no effect) to 100 (complete control), read-out: Velvetleaf plant response rating): 100% | pest or weed control at 125 g/ha (velvetleaf [1]; 125 g ai/ha, preemergence, scale 0 (no effect) to 100 (complete control), read-out: Velvetleaf plant response rating): 100% | pest or weed control at 250 g/ha (velvetleaf [1]; 250 g ai/ha, preemergence, scale 0 (no effect) to 100 (complete control), read-out: Velvetleaf plant response rating): 100% | pest or weed control at 31 g/ha (velvetleaf [1]; Preemergence, 31 g ai/ha, scale 0 to 100, 0 no effect, 100 complete control, read-out: Plant response rating, Velvetleaf): 100% | pest or weed control at 125 g/ha (barnyardgrass; 125 g ai/ha, 0 to 100 scale where 0 is no effect and 100 is complete control, read-out: Plant response rating, Barnyardgrass): 100% | pest or weed control at 500 g/ha (barnyardgrass; 500 g ai/ha, 0 to 100 scale, 0 no effect, 100 complete control, read-out: Plant response rating Barnyardgrass): 100% | pest or weed control at 62 g/ha (waterhemp; 62 g ai/ha, preemergence, scale 0 (no effect) to 100 (complete control), read-out: Waterhemp plant response rating): 100% | pest or weed control at 125 g/ha (waterhemp; 125 g ai/ha, preemergence, scale 0 (no effect) to 100 (complete control), read-out: Waterhemp plant response rating): 100% | pest or weed control at 250 g/ha (waterhemp; 250 g ai/ha, preemergence, scale 0 (no effect) to 100 (complete control), read-out: Waterhemp plant response rating): 100% | pest or weed control at 31 g/ha (waterhemp; Preemergence, 31 g ai/ha, scale 0 to 100, 0 no effect, 100 complete control, read-out: Plant response rating, Waterhemp): 100% | pest or weed control at 125 g/ha (giant foxtail [2]; 125 g ai/ha, 0 to 100 scale where 0 is no effect and 100 is complete control, read-out: Plant response rating, Foxtail, Giant): 100% | pest or weed control at 500 g/ha (giant foxtail [2]; 500 g ai/ha, 0 to 100 scale, 0 no effect, 100 complete control, approx. 10 days, read-out: Foxtail, Giant plant response rating): 100% | pest or weed control at 125 g/ha (yellow nutsedge; 125 g ai/ha, postemergence, read-out: Plant response rating (0 to 100), Nutsedge, Yellow): 5% | pest or weed control at 250 g/ha (yellow nutsedge; 250 g ai/ha, postemergence, read-out: Plant response rating (0 to 100), Nutsedge, Yellow): 10% | pest or weed control at 31 g/ha (yellow nutsedge; Postemergence, 31 g ai/ha, scale 0 to 100 (0 no effect, 100 complete control), 13 to 15 days, read-out: Plant response rating, Nutsedge, Yellow): 0% | pest or weed control at 62 g/ha (yellow nutsedge; Postemergence, 62 g ai/ha, scale 0 to 100 (0 no effect, 100 complete control), read-out: Plant response rating, Nutsedge, Yellow): 5% | pest or weed control at 62 g/ha (morningglory [3]; 62 g ai/ha, preemergence, scale 0 (no effect) to 100 (complete control), read-out: Morningglory plant response rating): 100% | pest or weed control at 125 g/ha (morningglory [3]; 125 g ai/ha, preemergence, scale 0 (no effect) to 100 (complete control), read-out: Morningglory plant response rating): 100% | pest or weed control at 250 g/ha (morningglory [3]; 250 g ai/ha, preemergence, scale 0 (no effect) to 100 (complete control), read-out: Morningglory plant response rating): 100% | pest or weed control at 31 g/ha (morningglory [3]; Preemergence, 31 g ai/ha, scale 0 to 100, 0 no effect, 100 complete control, read-out: Plant response rating, Morningglory): 95% | plant injury at 62 g/ha (corn; 62 g ai/ha): 55% | plant injury at 125 g/ha (corn; 125 g ai/ha): 75% | plant injury at 250 g/ha (corn; 250 g ai/ha): 90% | pest or weed control at 125 g/ha (morningglory [4]; 125 g ai/ha, postemergence, read-out: Plant response rating (0 to 100), Morningglory): 95% | pest or weed control at 250 g/ha (morningglory [4]; 250 g ai/ha, postemergence, read-out: Plant response rating (0 to 100), Morningglory): 95% | pest or weed control at 31 g/ha (morningglory [4]; Postemergence, 31 g ai/ha, scale 0 to 100 (0 no effect, 100 complete control), 13 to 15 days, read-out: Plant response rating, Morningglory): 80% | pest or weed control at 62 g/ha (morningglory [4]; Postemergence, 62 g ai/ha, scale 0 to 100 (0 no effect, 100 complete control), read-out: Plant response rating, Morningglory): 85% | pest or weed control at 125 g/ha (velvetleaf [5]; 125 g ai/ha, 0 to 100 scale where 0 is no effect and 100 is complete control, read-out: Plant response rating, Velvetleaf): 100% | pest or weed control at 500 g/ha (velvetleaf [5]; 500 g ai/ha, 0 to 100 scale, 0 no effect, 100 complete control, read-out: Plant response rating Velvetleaf): 100% | plant injury at 125 g/ha (wheat; 125 g ai/ha, 0 to 100 scale where 0 is no effect and 100 is complete control, read-out: Plant response rating, Wheat): 70% | plant injury at 500 g/ha (wheat; 500 g ai/ha, 0 to 100 scale, 0 no effect, 100 complete control, read-out: Plant response rating Wheat): 100% | pest or weed control at 125 g/ha (giant foxtail [6]; 125 g ai/ha, postemergence, read-out: Plant response rating (0 to 100), Foxtail, Giant): 45% | pest or weed control at 250 g/ha (giant foxtail [6]; 250 g ai/ha, postemergence, read-out: Plant response rating (0 to 100), Foxtail, Giant): 90% | pest or weed control at 31 g/ha (giant foxtail [6]; Postemergence, 31 g ai/ha, scale 0 to 100 (0 no effect, 100 complete control), 13 to 15 days, read-out: Plant response rating, Foxtail, Giant): 10% | pest or weed control at 62 g/ha (giant foxtail [6]; Postemergence, 62 g ai/ha, scale 0 to 100 (0 no effect, 100 complete control), read-out: Plant response rating, Foxtail, Giant): 45% | pest or weed control at 125 g/ha (galium; 125 g ai/ha, postemergence, read-out: Plant response rating (0 to 100), Galium): 90% | pest or weed control at 250 g/ha (galium; 250 g ai/ha, postemergence, read-out: Plant response rating (0 to 100), Galium): 90% | pest or weed control at 31 g/ha (galium; Postemergence, 31 g ai/ha, scale 0 to 100 (0 no effect, 100 complete control), 13 to 15 days, read-out: Plant response rating, Galium): 65% | pest or weed control at 62 g/ha (galium; Postemergence, 62 g ai/ha, scale 0 to 100 (0 no effect, 100 complete control), read-out: Plant response rating, Galium): 80%

Source: US9695155B2, “Herbicidal substituted pyrimidinyloxy benzene compounds” (E. I. DU PONT DE NEMOURS AND COMPANY, priority 2013, dated 2017)
